From ChEMBL document CHEMBL2151028, “Analysis of the mushroom nephrotoxin orellanine and its glucosides” (J Nat Prod, 2012) come the findings set out here.

Common to all, as to type: organism-based
Details in all cases: in vivo

One data set is filed under the species Homo sapiens. Nature of the data set: Acute toxicity in human.
A short description of data set [1]: Acute toxicity in po dosed mouse.
Data set [2] in a line: Acute toxicity in ip dosed rat.

For the compound `[O-][n+]1ccc(O)c(O)c1-c1c(O)c(O)cc[n+]1[O-]` [ORELLANINE], the LD50 in the data set filed under Homo sapiens came to 29 g; in data set [1] it was 12 mg/kg; in data set [2], 5 mg/kg.
